Experimental findings from PubChem BioAssay (NCI) are described below.

Common to all, as to assay: DTP human tumour cell line panel, 48 h
The test system of assay [1] is ACHN renal.
Assay [2] concerns COLO 205 colon.
In assay [3] the test system is HL-60(TB) leukemia.
Assay [4] concerns HOP-62 NSCLC.
The subject of assay [5] is HOP-92 NSCLC.
Assay [6] relates to NCI-H23 lung.
For assay [7], the system named is OVCAR-3 ovarian.
Assay [8] deals with SK-MEL-28 melanoma.
Assay [9] concerns SN12C renal.
The subject of assay [10] is T-47D breast.

Where “and” joins values, the source holds several entries; their conditions need not be identical. Equal entries are not always repeated.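 Compound exposure: 48 hours, 5 concentrations, 96-well plates. TGI denotes the concentration required for complete inhibition of growth.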

By TGI is commonly meant the concentration giving total growth inhibition. High values mean less potent growth arrest, low ones more potent growth arrest. In the case of `CSc1cnc2ccccc2c1SC1CN(Cc2ccccc2)c2ccccc2C1=O` (stereo not given), the TGI in assay [1], in [2], in assay [3], in assay [4], in [5] and in assay [6] was more than 100 µM in each case. The TGI in assay [7], in assay [8], in [9] and in [10] was more than 100 µM in each case.

Regarding `CC1=NNC(=O)C1C(CC(=O)c1c[nH]c2ccccc12)C(=O)O` (stereo not given), the TGI in [1], in assay [2], in [3], in assay [4], in [5] and in assay [6] was more than 100 µM throughout. Also, the TGI in [7], in [8], in [9] and in assay [10] was more than 100 µM each time.

Regarding `Nc1ccc(C(=O)N2CCC[C@H]2CO)c(N)c1`, the TGI in [1], in assay [2], in [3], in [4], in assay [5] and in assay [6] was more than 100 µM throughout. For the same compound, the TGI in [7], in [8], in assay [9] and in assay [10] was more than 100 µM in each case.

As for `C[N+]12CCCCC1C(CN1C(=O)Cc3c4ccccc4c(c4ccccc34)CC1=O)CCC2` (stereo not given), the TGI in [1], in assay [2], in [3], in assay [4], in assay [5] and in assay [6] was more than 100 µM each time. In addition, the TGI in [7], in [8], in [9] and in [10] was more than 100 µM each time.

With `CC(=O)[C@@]1(O)CC[C@H]2[C@@H]3C[C@H](C)C4=CC(=O)C=C[C@]4(C)[C@@]3(F)[C@@H](O)C[C@@]21C`, the TGI in [1], in assay [2], in assay [3], in assay [4], in assay [5] and in assay [6] was more than 100 µM in each case. The TGI in [7], in assay [8], in [9] and in [10] was more than 100 µM each time.

As to `CC12CCC(O)CC1CCC1C2CCC2(C)C(C(=O)CC(O)C(F)(F)F)CCC12` (stereo not given), the total growth inhibition concentration (TGI) in assay [1] was more than 100 µM; in [2] it was 33.1 µM; in assay [3], 47.5 µM; in [4], more than 95.1 µM; in assay [5] it was more than 85.2 µM; in assay [6], more than 100 µM. Also, the TGI is more than 90.9 µM in assay [7], more than 100 µM in assay [8], more than 100 µM in [9] and more than 100 µM in [10].

Turning to `CN(C)c1ccc(C2SCC(=O)N2c2ccc(Oc3ccc(Cl)cc3)c(Cl)c2)cc1` (stereo not given), the TGI in [1] was more than 100 µM; in assay [2], 36.2 µM; in assay [3], 58.7 µM; in assay [4], 41 µM; in assay [5] it was 45.8 µM; in assay [6], 45.4 µM. In addition, the total growth inhibition concentration (TGI) in [7] was 79.9 µM; in assay [8], more than 100 µM; in [9], 50 µM; in [10], 61 µM.

In the case of `On1c(-c2ccccc2)nc2ccccc2c1=S`, the TGI in assay [1], in assay [2], in assay [3], in assay [4], in assay [5] and in assay [6] was more than 100 µM throughout. Besides, the TGI in assay [7], in assay [8], in assay [9] and in [10] was more than 100 µM throughout.

As for `Nc1ccc(S2(c3ccc(N)cc3)C=C(c3ccccc3)C(c3ccccc3)=C2)cc1`, the TGI in assay [1] is more than 92.5 µM; in assay [2] it was more than 100 µM; in [3] it was more than 100 µM; in [4], more than 100 µM; in assay [5], more than 100 µM; in assay [6], more than 100 µM. The TGI in [7], in assay [8], in assay [9] and in assay [10] was more than 100 µM in each case.

On to `CN(C)CCOC1(Cc2ccc(F)cc2)CCC(C(C)(C)C)CC1` (stereo not given), for which the TGI is 23.5 µM and 25.7 µM in assay [1]; 4.7 µM and 5.66 µM in assay [2]; 13.1 µM in assay [3]; 19.3 µM and 18.8 µM in assay [4]; 25.3 µM in [5]; 27.5 µM and 24.8 µM in assay [6]. For the same compound, the TGI was 23.2 µM and 28.1 µM in assay [7]; 14.7 µM and 12 µM in [8]; 25 µM and 27.5 µM in assay [9]; 17.1 µM and 13.7 µM in assay [10].

Take `COc1ccc2cc(C(C)C(=O)N3CCOC3=O)ccc2c1` (stereo not given): the concentration for total growth inhibition (TGI) in assay [1], in [2], in assay [3], in assay [4], in assay [5] and in assay [6] was more than 100 µM each time. Also, the TGI in assay [7], in assay [8], in assay [9] and in [10] was more than 100 µM each time.

As to `CC(C)(C)OC(=O)NCCCNC1(c2cc3ccccc3s2)CCCCC1`, the TGI in assay [1] was 33.6 µM; in assay [2], 27.8 µM; in assay [3] it was 28 µM; in assay [4], 28.5 µM; in assay [5] it was 22.6 µM; in assay [6], 26.4 µM. The TGI amounted to 27.5 µM in assay [7], 29.9 µM in [8], 30.5 µM in assay [9] and 39.7 µM in assay [10].

As for `C=CCOc1ccc(C2(O)c3ccccc3C3=NCCCN32)cc1` (stereo not given), the TGI in [1] was more than 72.2 µM; in assay [2], 43.5 µM; in [3] it was more than 100 µM; in assay [4], more than 100 µM; in assay [5], more than 100 µM; in assay [6] it was more than 100 µM. The TGI in assay [7] is more than 100 µM; in assay [8], 59.3 µM; in [9], more than 100 µM; in assay [10], more than 74.6 µM.
